Experimental findings from ChEMBL document CHEMBL6177990, “Fluorescence-Coupled Ubiquitination Assay as a High-Throughput Screening Strategy for Novel Cereblon Degraders” (J Med Chem, 2025) are described below.

The source made the active and inactive calls. The rule behind the calls is not given here.

Test [1] is described as follows: PROTAC activity at human BRD4 BD1/CRBN assessed as ubiquitination level by measuring unmodified protein by […].
The target of test [2] is T1, Protein cereblon/Nucleosome-remodeling factor subunit BPTF (Homo sapiens, UniProt Q12830+Q96SW2). The test can be described thus: PROTAC activity at human BPTF/CRBN in human MV4-11 cells assessed as degradation of protein measured after 24 hrs by immunoblotting analysis. It counts as cell-based. For orientation: Immunoblotting shows a protein as a band on a membrane.
Target sequence in this assay (Q96SW2 whole entry, looked up, other chains not shown): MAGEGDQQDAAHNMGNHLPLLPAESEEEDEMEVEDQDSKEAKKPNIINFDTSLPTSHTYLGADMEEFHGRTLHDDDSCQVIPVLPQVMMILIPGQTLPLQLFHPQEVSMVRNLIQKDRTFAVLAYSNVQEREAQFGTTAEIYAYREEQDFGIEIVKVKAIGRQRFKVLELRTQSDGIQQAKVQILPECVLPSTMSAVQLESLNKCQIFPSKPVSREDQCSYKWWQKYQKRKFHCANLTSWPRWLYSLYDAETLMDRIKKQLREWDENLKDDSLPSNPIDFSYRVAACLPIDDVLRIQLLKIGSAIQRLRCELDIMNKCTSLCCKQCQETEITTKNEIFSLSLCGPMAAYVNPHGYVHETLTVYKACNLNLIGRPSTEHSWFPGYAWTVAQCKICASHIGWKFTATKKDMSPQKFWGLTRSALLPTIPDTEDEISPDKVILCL

For test [3], the target named is Protein cereblon/Bromodomain-containing protein 9 (Homo sapiens) (UniProt Q9H8M2+Q96SW2). The test can be described thus: PROTAC activity at human BRD9/CRBN in human MV4-11 cells assessed as degradation of protein at 20 uM measured after 24 hrs by immunoblotting analysis. The class given is cell-based.
Test [4] deals with T2, Protein cereblon/Chromatin remodeling regulator CECR2 (Homo sapiens) (UniProt Q9BXF3+Q96SW2). The experiment in a line: PROTAC activity at human CECR2/CRBN in human MV4-11 cells assessed as degradation of protein at 20 uM measured after 24 hrs by immunoblotting analysis. The class given is cell-based.
Test [5] addresses T1, Protein cereblon/Nucleosome-remodeling factor subunit BPTF. The test can be described thus: PROTAC activity at human BPTF/CRBN in human MV4-11 cells assessed as degradation of protein pretreated with MLN4924 for 12hrs followed by measured after 24 hrs of compound treatment by immunoblotting analysis. The class given is cell-based.
Target sequence in this assay (Q96SW2 whole entry, looked up, other chains not shown): as above
The target is the same in test [6]. The experiment in a line: PROTAC activity at human BPTF/CRBN assessed as ubiquitination level by measuring unmodified protein in presence of pomalidomide by fluorescence-coupled CRBN-based ubiquitination assay.
Target sequence in this assay (Q96SW2 whole entry, looked up, other chains not shown): as above
Test [7] is described as follows: Binding affinity to human BPTF BRD assessed as dissociation constant.
Test [8] deals with T1, Protein cereblon/Nucleosome-remodeling factor subunit BPTF. The test can be described thus: PROTAC activity at human BPTF/CRBN in human MV4-11 cells assessed as degradation of protein measured after 24 hrs in presence of pomalidomide by immunoblotting analysis. It counts as cell-based.
Target sequence in this assay (Q96SW2 whole entry, looked up, other chains not shown): as above
Test [9] deals with Protein cereblon/Histone acetyltransferase KAT2B (Homo sapiens) (UniProt Q92831+Q96SW2). The test can be described thus: PROTAC activity at human PCAF/CRBN in human MV4-11 cells assessed as degradation of protein at 20 uM measured after 24 hrs by immunoblotting analysis. The class given is cell-based.
Test [10] addresses T1, Protein cereblon/Nucleosome-remodeling factor subunit BPTF. The experiment in a line: PROTAC activity at human BPTF/CRBN assessed as degradation of protein by measuring unmodified protein by fluorescence-coupled CRBN-based ubiquitination assay.
Target sequence in this assay (Q96SW2 whole entry, other chains not shown): as the sequence (Q96SW2 whole entry, looked up, other chains not shown) above
Test [11] can be described thus: Inhibition of human BPTF BRD by HTRF assay. A general note: TR-FRET usually uses a lanthanide donor and a delayed reading to cut background.
Test [12] concerns the target T2, Protein cereblon/Chromatin remodeling regulator CECR2 (Homo sapiens). The experiment in a line: PROTAC activity at human CECR2/CRBN assessed as degradation of protein by measuring unmodified protein at 20 uM by fluorescence-coupled CRBN-based ubiquitination assay.
A further test has as its system MV4-11. The test can be described thus: Antiproliferative activity against human MV4-11 cells assessed as cell viability measured after 6 days by CellTiter-Glo kit. The class given is functional, cell-based. To be noted: MV4-11, 144 h.
The target in test [13] is T1, Protein cereblon/Nucleosome-remodeling factor subunit BPTF. The test can be described thus: PROTAC activity at human BPTF/CRBN assessed as ubiquitination level by measuring unmodified protein by fluorescence-coupled CRBN-based ubiquitination assay.
Target sequence in this assay (Q96SW2 whole entry, looked up, other chains not shown): as above
For test [14], the target named is T2, Protein cereblon/Chromatin remodeling regulator CECR2 (Homo sapiens). The test can be described thus: PROTAC activity at human CECR2/CRBN assessed as degradation of protein by measuring unmodified protein at 10 uM by fluorescence-coupled CRBN-based ubiquitination assay.
Test [15] has as its target T1, Protein cereblon/Nucleosome-remodeling factor subunit BPTF. The experiment in a line: PROTAC activity at human BPTF/CRBN in human MV4-11 cells assessed as degradation of protein at 5 uM measured after 24 hrs by immunoblotting analysis. The class given is cell-based.
Target sequence in this assay (Q96SW2 whole entry, looked up, other chains not shown): as above

T2 sequence (Q96SW2 whole entry, looked up): as the sequence (Q96SW2 whole entry, looked up, other chains not shown) above
T2 sequence (Q9BXF3 whole entry, looked up): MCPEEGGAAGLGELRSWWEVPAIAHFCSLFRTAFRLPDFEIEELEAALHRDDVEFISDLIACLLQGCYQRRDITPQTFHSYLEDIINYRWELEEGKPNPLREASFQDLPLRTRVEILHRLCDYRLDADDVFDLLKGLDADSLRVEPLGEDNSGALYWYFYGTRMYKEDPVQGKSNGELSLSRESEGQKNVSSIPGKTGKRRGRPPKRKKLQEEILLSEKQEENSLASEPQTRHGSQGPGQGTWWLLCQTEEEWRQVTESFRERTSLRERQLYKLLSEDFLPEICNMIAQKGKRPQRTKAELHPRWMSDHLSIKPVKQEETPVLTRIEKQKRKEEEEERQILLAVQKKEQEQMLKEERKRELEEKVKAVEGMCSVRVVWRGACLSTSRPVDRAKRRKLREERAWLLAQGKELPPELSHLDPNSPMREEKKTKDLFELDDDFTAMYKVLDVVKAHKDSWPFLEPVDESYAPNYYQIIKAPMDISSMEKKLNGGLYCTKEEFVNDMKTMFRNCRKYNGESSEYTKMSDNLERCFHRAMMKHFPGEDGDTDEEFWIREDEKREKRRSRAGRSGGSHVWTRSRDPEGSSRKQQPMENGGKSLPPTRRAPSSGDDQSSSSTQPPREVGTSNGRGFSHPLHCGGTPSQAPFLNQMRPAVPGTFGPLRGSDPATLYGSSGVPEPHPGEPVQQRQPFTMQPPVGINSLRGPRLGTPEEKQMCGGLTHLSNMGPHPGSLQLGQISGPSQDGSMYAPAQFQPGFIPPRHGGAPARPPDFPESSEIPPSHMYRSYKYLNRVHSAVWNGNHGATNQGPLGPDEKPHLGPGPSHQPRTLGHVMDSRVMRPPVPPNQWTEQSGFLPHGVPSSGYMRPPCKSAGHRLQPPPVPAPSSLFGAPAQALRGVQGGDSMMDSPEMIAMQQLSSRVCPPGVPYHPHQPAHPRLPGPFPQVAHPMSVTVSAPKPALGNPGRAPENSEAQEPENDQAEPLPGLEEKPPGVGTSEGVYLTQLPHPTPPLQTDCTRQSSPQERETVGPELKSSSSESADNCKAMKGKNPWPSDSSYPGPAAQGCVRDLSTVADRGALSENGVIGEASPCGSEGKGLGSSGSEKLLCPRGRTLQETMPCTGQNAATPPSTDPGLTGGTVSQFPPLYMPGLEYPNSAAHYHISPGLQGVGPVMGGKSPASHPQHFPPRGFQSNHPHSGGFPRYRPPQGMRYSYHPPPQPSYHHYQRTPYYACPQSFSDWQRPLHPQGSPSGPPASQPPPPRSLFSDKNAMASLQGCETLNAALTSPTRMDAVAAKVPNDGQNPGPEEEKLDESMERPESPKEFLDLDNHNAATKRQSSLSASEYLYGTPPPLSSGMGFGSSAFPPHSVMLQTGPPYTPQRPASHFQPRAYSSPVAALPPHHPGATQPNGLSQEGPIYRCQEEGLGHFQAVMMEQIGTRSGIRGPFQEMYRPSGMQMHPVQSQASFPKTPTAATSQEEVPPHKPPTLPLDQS
Chain of Protein cereblon/Histone acetyltransferase KAT2B (Homo sapiens) (Q92831 whole entry, looked up): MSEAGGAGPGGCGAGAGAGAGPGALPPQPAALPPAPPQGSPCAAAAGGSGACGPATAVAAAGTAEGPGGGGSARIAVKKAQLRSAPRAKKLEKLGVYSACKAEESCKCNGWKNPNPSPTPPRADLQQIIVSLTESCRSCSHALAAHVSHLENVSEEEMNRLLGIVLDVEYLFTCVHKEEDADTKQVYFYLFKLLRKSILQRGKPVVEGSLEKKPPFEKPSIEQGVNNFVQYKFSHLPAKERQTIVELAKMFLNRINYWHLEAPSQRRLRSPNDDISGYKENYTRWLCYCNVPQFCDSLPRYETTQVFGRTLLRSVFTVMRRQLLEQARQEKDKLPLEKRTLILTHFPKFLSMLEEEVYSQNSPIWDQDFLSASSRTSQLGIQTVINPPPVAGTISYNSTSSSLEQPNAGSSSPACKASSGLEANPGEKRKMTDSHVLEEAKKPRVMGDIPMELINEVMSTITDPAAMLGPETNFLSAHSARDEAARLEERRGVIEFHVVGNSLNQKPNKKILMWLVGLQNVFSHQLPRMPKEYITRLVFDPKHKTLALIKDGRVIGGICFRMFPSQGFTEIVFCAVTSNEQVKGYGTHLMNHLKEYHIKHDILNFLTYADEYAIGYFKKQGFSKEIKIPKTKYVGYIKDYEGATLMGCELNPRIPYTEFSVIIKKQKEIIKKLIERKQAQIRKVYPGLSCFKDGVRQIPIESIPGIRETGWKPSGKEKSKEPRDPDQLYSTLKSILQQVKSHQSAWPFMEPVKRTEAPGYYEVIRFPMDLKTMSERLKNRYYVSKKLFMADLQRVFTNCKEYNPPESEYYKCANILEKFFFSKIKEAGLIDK
Chain of Protein cereblon/Histone acetyltransferase KAT2B (Homo sapiens) (Q96SW2 whole entry, looked up): as the sequence (Q96SW2 whole entry, looked up, other chains not shown) above
Chain of Protein cereblon/Bromodomain-containing protein 9 (Homo sapiens) (Q96SW2 whole entry, looked up): as the sequence (Q96SW2 whole entry, looked up, other chains not shown) above
Chain of Protein cereblon/Bromodomain-containing protein 9 (Homo sapiens) (Q9H8M2 whole entry, looked up): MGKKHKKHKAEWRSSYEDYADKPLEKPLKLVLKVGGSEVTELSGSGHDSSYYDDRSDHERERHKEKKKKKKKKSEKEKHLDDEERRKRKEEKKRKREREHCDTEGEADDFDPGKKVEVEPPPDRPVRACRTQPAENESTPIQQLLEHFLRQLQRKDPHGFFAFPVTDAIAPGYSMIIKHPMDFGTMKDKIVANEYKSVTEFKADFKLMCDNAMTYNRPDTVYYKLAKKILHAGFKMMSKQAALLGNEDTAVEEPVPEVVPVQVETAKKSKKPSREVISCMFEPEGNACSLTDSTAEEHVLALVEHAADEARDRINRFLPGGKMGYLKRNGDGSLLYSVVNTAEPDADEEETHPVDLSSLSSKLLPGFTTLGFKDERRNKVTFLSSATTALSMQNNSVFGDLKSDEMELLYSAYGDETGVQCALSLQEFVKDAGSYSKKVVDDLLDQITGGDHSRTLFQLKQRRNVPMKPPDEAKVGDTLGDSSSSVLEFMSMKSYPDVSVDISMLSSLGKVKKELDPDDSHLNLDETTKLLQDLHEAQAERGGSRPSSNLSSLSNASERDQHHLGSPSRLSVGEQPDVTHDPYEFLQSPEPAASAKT

Usually IC50 stands for the concentration at which inhibition is half-maximal. Take `COC(=O)C[C@@H]1N=C(c2ccc(Cl)cc2)c2c(sc(C(=O)NCCCCCCCCNC(=O)COc3cccc4c3C(=O)N(C3CCC(=O)NC3=O)C4=O)c2C)-n2c(C)nnc21` (stereo partly specified): the 50% inhibitory concentration (IC50) in test [1] worked out at 1150 nM.
As to `Cc1sc2c(c1C)C(c1ccc(Cl)cc1)=N[C@@H](CC(=O)Nc1ccc(OCCOCCOCCOCCNc3cccc4c3C(=O)N(C3CCC(=O)NC3=O)C4=O)cc1)c1nnc(C)n1-2` (stereo partly specified), the half-inhibitory concentration (IC50) in [1] stood at 1250 nM.
By Kd is commonly meant the equilibrium constant for the complex coming apart. As a reminder, the DC50 is the midpoint of the concentration-degradation curve. In the case of `CCCNc1cc(-c2ccc(OCCCN3CCN(C(=O)COc4cccc5c4C(=O)N(C4CCC(=O)NC4=O)C5=O)CC3)c(C#N)c2)nc(S(C)(=O)=O)n1` (stereo unspecified), the Activity result in [2] is “Dose-dependent-effect”. In addition, the result in [3], in test [4], in test [5], in test [6], in test [8] and in test [9] was inactive. The result in test [12] was inactive. Moreover, in test [7], the Kd was 310 nM. Besides, the DC50 in test [10] came out at 35.1 nM. Also, the figures for the half-maximal inhibitory concentration (IC50) (in [11]; in the test with MV4-11; in test [1]) were 150 nM, 2710 nM and 680 nM, respectively. The outcome in test [13] was Active.
For `CCCNc1cc(-c2ccc(OCCCN3CCN(C(=O)CCCCCOc4cccc5c4C(=O)N(C4CCC(=O)NC4=O)C5=O)CC3)c(C#N)c2)nc(S(C)(=O)=O)n1` (stereo unspecified), the result in test [14] was inactive.
In the case of `CCCNc1cc(-c2ccc(OCCCN3CCN(C(=O)COc4cccc5c4C(=O)N(C4CCC(=O)N(C)C4=O)C5=O)CC3)c(C#N)c2)nc(S(C)(=O)=O)n1` (stereo unspecified), the result in test [15] and in test [13] was inactive.
Regarding `CCCNc1cc(-c2ccc(OCCCN3CCN(C(=O)CCCCNc4cccc5c4C(=O)N(C4CCC(=O)NC4=O)C5=O)CC3)c(C#N)c2)nc(S(C)(=O)=O)n1` (stereo unspecified), in test [14], the result was inactive.
Turning to `Cc1sc2c(c1C)C(c1ccc(Cl)cc1)=N[C@@H](CC(=O)NCCNc1cccc3c1C(=O)N(C1CCC(=O)NC1=O)C3=O)c1nnc(C)n1-2` (stereo partly specified), in test [1], the half-maximal inhibitory concentration (IC50) was determined as 280 nM.
Consider `CCCNc1cc(-c2ccc(OCCCN3CCN(C(=O)C4CN(c5cccc6c5C(=O)N(C5CCC(=O)NC5=O)C6=O)C4)CC3)c(C#N)c2)nc(S(C)(=O)=O)n1` (stereo unspecified), for which the DC50 in test [10] worked out at 44.6 nM. The outcome in [12] was inactive. Moreover, the outcome in test [13] was Active.
As for `CCCNc1cc(-c2ccc(OCCCN3CCN(C(=O)C4CCN(c5cccc6c5C(=O)N(C5CCC(=O)NC5=O)C6=O)CC4)CC3)c(C#N)c2)nc(S(C)(=O)=O)n1` (stereo unspecified), the outcome in [12] and in test [13] was Active.
